Strand notation (5' to 3'): a small letter for the sugar, then the base; units joined by * are phosphorothioate-linked, units joined directly phosphodiester-linked; [ ] holds rarer units or linkages, { } end groups; capitals alone tell only the bases. e = 2'-O-(2-methoxyethyl) (MOE); [5mC] = 5-methylcytosine; d = 2'-deoxy (DNA)

Data set [1] concerns human PKK mRNA. Put plainly: Antisense inhibition of human PKK mRNA in HepaRG cells, 5,000 nM (Example 2). It is filed as cell-based. Conditions: electroporation with 5,000 nM antisense oligonucleotide, approx. 24 hours, PKK mRNA by RT-PCR (RTS3454), relative to untreated control cells. In outline: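 HepaRG cells (20,000/well) electroporated with 5,000 nM MOE gapmer (phosphorothioate backbone, 5-methylcytosines) and harvested after ~24 h. PKK mRNA measured by qRT-PCR with primer probe set RTS3454, normalized to RIBOGREEN total RNA; percent inhibition versus untreated cells.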

The test system of data set [2] is human PKK mRNA. The data set is described as follows: Dose-dependent antisense inhibition of human PKK in HepaRG cells, 0.19-5.00 uM (Example 5). It is filed as cell-based. Conditions: HepaRG cells. In outline:
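HepaRG cells (20,000/well) were electroporated with antisense oligonucleotide at 0.19, 0.56, 1.67 and 5.00 μM and treated for about 16 hours. PKK mRNA was quantified by qRT-PCR with primer probe set RTS3454, normalised to RIBOGREEN total RNA, and IC50 was derived per oligonucleotide.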

Data set [3] deals with human PKK mRNA. Put plainly: Human PKK mRNA in liver of human KLKB1 transgenic mice (Example 7). It is filed as in vivo. The settings on record: twice a week for 3 weeks. On the procedure:
(§1) Transgenic mice containing a 37,390 base pair fragment of the human KLKB1 gene sequence (chromosome 4: position 187148672-187179625, accession no: NC_000004.11) were treated with ISIS antisense oligonucleotides selected from studies described above, which were evaluated for efficacy in this model.
(§2) Groups of transgenic mice were injected subcutaneously twice a week for 3 weeks with 2.5 mg/kg/week, 5.0 mg/kg/week, 10 mg/kg/week or 20 mg/kg/week of ISIS 546232, ISIS 546251, ISIS 546254, ISIS 546343, ISIS 546828, ISIS 547455, ISIS 547457, ISIS 547927, and ISIS 548048. One group of transgenic mice was injected subcutaneously twice a week for 3 weeks with PBS. Mice were euthanized 48 hours after the last dose, and organs and plasma were harvested for further analysis.
To evaluate the effect of ISIS oligonucleotides on target reduction, RNA was extracted from liver tissue for real-time PCR analysis of human PKK. Results are presented as percent inhibition of PKK mRNA, relative to PBS control.

The next data set has as its system PKK protein. The data set is described as follows: Plasma PKK protein levels in human KLKB1 transgenic mice (Example 7). In kind it is in vivo. Conditions: plasma, twice a week for 3 weeks. On the procedure:
as §1, §2
Plasma PKK protein levels were evaluated in all groups. Results are presented as percent inhibition of PKK protein, relative to PBS control.

A further data set deals with PKK mRNA. The data set is described as follows: PKK mRNA in cynomolgus monkey liver (Example 8). In kind it is in vivo. The settings on record: 40 mg/kg s.c., loading then weekly to week 13; day 87 or 88, 48 h after final dose. On the procedure:
Cynomolgus monkeys were treated with ISIS antisense oligonucleotides selected from studies described above. Antisense oligonucleotide efficacy and tolerability were evaluated. The human antisense oligonucleotides tested are cross-reactive with the rhesus genomic sequence (GENBANK Accession No. NW_001118167.1 truncated from nucleotides 2358000 to 2391000 and designated herein as SEQ ID NO: 18).
On day 87 or 88, 48 hours after the final dose, RNA was extracted from liver tissue for real-time PCR analysis of PKK using primer probe set RTS3455 (forward sequence […], designated herein as SEQ ID NO: 23; reverse sequence […], designated herein as SEQ ID NO: 24; probe sequence […], designated herein as SEQ ID NO: 25). The results were normalized to the housekeeping gene, Cyclophilin. Results are presented as percent inhibition of PKK mRNA, relative to PBS control.

The subject of data set [4] is human PKK mRNA. Put plainly: Antisense inhibition of human PKK mRNA in HepaRG cells, 3,000 nM (Example 1). It is filed as cell-based. The settings on record: relative to untreated control cells. The gist of the method:
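HepaRG cells, 20,000 per well, were electroporated with 3,000 nM 5-10-5 MOE gapmer (phosphorothioate, 5-methylcytosine). After about 24 h, PKK mRNA was measured by qRT-PCR with primer probe set RTS3454 and normalised to RIBOGREEN total RNA. Values are percent inhibition versus untreated cells.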

Data set [5] deals with human PKK mRNA. Put plainly: Dose-dependent antisense inhibition of human PKK in HepaRG cells, 0.12-10.00 uM (Example 4). It is filed as cell-based. Conditions: electroporation, ~16 h. On the procedure:
Cells were plated at a density of 20,000 cells per well and transfected using electroporation with 0.12 μM, 0.37 μM, 1.11 μM, 3.33 μM, and 10.00 μM concentrations of antisense oligonucleotide. After a treatment period of approximately 16 hours, RNA was isolated from the cells and PKK mRNA levels were measured by quantitative real-time PCR. Human PKK primer probe set RTS3454 was used to measure mRNA levels. PKK mRNA levels were adjusted according to total RNA content, as measured by RIBOGREEN®. The antisense oligonucleotides were tested in a series of experiments that had similar culture conditions. Results are presented as percent inhibition of PKK, relative to untreated control cells.
The half maximal inhibitory concentration (IC50) of each oligonucleotide is also presented.

As for “546232 (eA*eG*eG*eA*eA*d[5mC]*dT*dT*dG*dG*dT*dG*dT*dG*d[5mC]*e[5mC]*eA*e[5mC]*eT*eT) [compound 546232]”, the “% inhibition” value with human PKK mRNA [1] (Table 7, HepaRG cells) was found to be 86%. In addition, the “percent inhibition of PKK at 0.19 μM” value with human PKK mRNA [2] (0.19 μM, electroporation, approximately 16 hours, Table 39) was found to be 49%. The “percent inhibition of PKK at 0.56 μM” value in the data set with human PKK mRNA [2] (0.56 μM, electroporation, approximately 16 hours, Table 39) is reported as 50%. Also, the “percent inhibition of PKK at 1.67 μM” value in the data set on human PKK mRNA [2] (1.67 μM, electroporation, approximately 16 hours, Table 39) turned out to be 94%. Also, the “percent inhibition of PKK at 5.00 μM” value in the data set on human PKK mRNA [2] (5.00 μM, electroporation, approximately 16 hours, Table 39) is 97%. Also, the IC50 with human PKK mRNA [2] (4 point dose response, Table 39) worked out at 200 nM; with human PKK mRNA [2] (0.19-5.00 μM), 200 nM. The “percent inhibition of PKK mRNA, 0.19 μM” value in the data set on human PKK mRNA [2] (0.19 μM antisense oligonucleotide) amounted to 0%. In addition, the “percent inhibition of PKK mRNA, 0.56 μM” value in the data set on human PKK mRNA [2] (0.56 μM antisense oligonucleotide) is 74%. Moreover, the “percent inhibition of PKK mRNA, 1.67 μM” value with human PKK mRNA [2] (1.67 μM antisense oligonucleotide) amounted to 95%. Also, in the data set on human PKK mRNA [2] (5.00 μM antisense oligonucleotide), the “percent inhibition of PKK mRNA, 5.00 μM” value came out at 96%. The “% inhibition of PKK mRNA in the transgenic mice liver relative to the PBS control” value amounted to 57% with human PKK mRNA [3] (2.5 mg/kg/week sc), 53% in the data set with human PKK mRNA [3] (5 mg/kg/week sc), 30% in the data set with human PKK mRNA [3] (10 mg/kg/week sc) and 84% in the data set with human PKK mRNA [3] (20 mg/kg/week sc). Also, the “% inhibition of PKK protein levels in the transgenic mice relative to the PBS control” value in the data set on PKK protein (2.5 mg/kg/week sc) is 0%; with PKK protein (5 mg/kg/week sc), 6%; in the data set with PKK protein (10 mg/kg/week sc), 33%; in the data set on PKK protein (20 mg/kg/week sc) it was 79%. Moreover, the “% inhibition of PKK mRNA in the cynomolgus monkey liver relative to the PBS control” value with PKK mRNA is given as 88%.
Regarding “531002 (eG*eA*eG*e[5mC]*eT*d[5mC]*d[5mC]*d[5mC]*dT*dT*dG*dT*dG*dT*d[5mC]*e[5mC]*e[5mC]*eA*eT*eA; antisense) [compound 531002]”, in the data set on human PKK mRNA [4] (Table 1, PKK mRNA, HepaRG cells, 3,000 nM, electroporation, ~24 h), the “% inhibition” value stood at 85%. Besides, the “percent inhibition of PKK at 0.12 μM” value in the data set on human PKK mRNA [5] (Table 32, 0.12 μM) amounted to 6%. Further, the “percent inhibition of PKK at 0.37 μM” value in the data set on human PKK mRNA [5] (Table 32, 0.37 μM) turned out to be 28%. Further, in the data set with human PKK mRNA [5] (Table 32, 1.11 μM), the “percent inhibition of PKK at 1.11 μM” value stood at 58%. Moreover, the “percent inhibition of PKK at 3.33 μM” value in the data set with human PKK mRNA [5] (Table 32, 3.33 μM) is 82%. The “percent inhibition of PKK at 10.00 μM” value in the data set on human PKK mRNA [5] (Table 32, 10.00 μM) was 86%. This substance came in with a half-maximal inhibitory concentration (IC50) with human PKK mRNA [5] (Table 32, PKK mRNA) of 900 nM.
With “531236 (eA*eT*e[5mC]*eA*e[5mC]*dT*dG*dT*dA*d[5mC]*dT*dA*dG*dT*dT*eT*e[5mC]*e[5mC]*eT*eA; antisense) [compound 531236]”, in the data set on human PKK mRNA [4] (Table 4, HepaRG cells, electroporation with 3,000 nM antisense oligonucleotide, approx. 24 hours, PKK mRNA by RT-PCR (RTS3454)), the “% inhibition” value worked out at 87%. The “percent inhibition of PKK at 0.12 μM” value with human PKK mRNA [5] (Table 33, 0.12 μM) amounted to 4%. Besides, the “percent inhibition of PKK at 0.37 μM” value in the data set with human PKK mRNA [5] (Table 33, 0.37 μM) amounted to 28%. Also, in the data set on human PKK mRNA [5] (Table 33, 1.11 μM), the “percent inhibition of PKK at 1.11 μM” value was 59%. Also, the “percent inhibition of PKK at 3.33 μM” value in the data set on human PKK mRNA [5] (Table 33, 3.33 μM) was found to be 85%. Also, in the data set with human PKK mRNA [5] (Table 33, 10.00 μM), the “percent inhibition of PKK at 10.00 μM” value is 93%. The substance also gave an IC50 in the data set on human PKK mRNA [5] (Table 33, PKK mRNA) of 800 nM.
In the case of “547455 (antisense eA*eT*eA*eT*e[5mC]*dA*dT*dG*dA*dT*dT*d[5mC]*d[5mC]*d[5mC]*dT*eT*e[5mC]*eT*eG*eA) [compound 547455]”, the “% inhibition” value is reported as 88% with human PKK mRNA [1] (Table 9 experiment, HepaRG cells, 20,000 cells per well) and 66% in the data set on human PKK mRNA [1] (Table 10 experiment, HepaRG cells, 20,000 cells per well). In addition, the “% inhibition of PKK mRNA in the transgenic mice liver relative to the PBS control” value is 0% in the data set with human PKK mRNA [3] (2.5 mg/kg/week sc), 69% in the data set on human PKK mRNA [3] (5 mg/kg/week sc), 45% in the data set with human PKK mRNA [3] (10 mg/kg/week sc) and 62% in the data set on human PKK mRNA [3] (20 mg/kg/week sc). The “% inhibition of PKK protein levels in the transgenic mice relative to the PBS control” value in the data set with PKK protein (2.5 mg/kg/week sc) was 0%; in the data set with PKK protein (5 mg/kg/week sc) it was 0%; with PKK protein (10 mg/kg/week sc) it was 32%; with PKK protein (20 mg/kg/week sc), 78%. In addition, the “% inhibition of PKK mRNA in the cynomolgus monkey liver relative to the PBS control” value in the data set on PKK mRNA was 90%.

For the origin of these results see US11840686B2, “Modulation of prekallikrein (PKK) expression” (Ionis Pharmaceuticals, Inc., priority 2013, dated 2023).
